Results from US20030235872A1, “Assay method” (priority 2002, published 2003).
Entries after “also recorded” stand apart in the source; their conditions may differ.

What was measured:
[1] = tested on: synthetic lipid mixtures (cholesterol: phospholipid SUV); assay: Biosensor (surface plasmon resonance, BIAcore L1 chip) binding of Aβ to synthetic lipid mixtures; set-up: KA1 (equilibrium association constant for high affinity binding component) / KA2 (equilibrium association constant of low-affinity binding component): unit not given here; settings: for extent of binding to the synthetic lipid mixture: 10 μM, cholesterol: phospholipid 60:40, compared with Aβ 1-28, FIG. 4; for KA1 (equilibrium association constant for high affinity binding component) / KA2 (equilibrium association constant of low-affinity binding component): competing reaction model
Protocol: Small 100 nm unilamellar vesicles (SUV), containing DMPC, DMPG, DMPS and DMPE, and cholesterol, were prepared in 0.02 M phosphate buffer (pH 6.8) by sonication and extraction. Briefly, 1.5 mg of total lipid was dissolved in 1.5 ml of CHCl3: MeOH (3:1, v/v). Aliquots (408 μl) were removed and evaporated under a stream of nitrogen, and the lipids further dried in vacuo overnight. The lipids were then resuspended in 600 μl of 0.02 M sodium phosphate buffer, pH 6.8. The resulting lipid dispersion was sonicated in a bath type sonicator until clear, and then extruded 17 times through 100 nm pore diameter polycarbonate filters using Liposofast apparatus (Avestin, Ottawa, Canada) to obtain 100 nm […]. The mixed lipid vesicles contained 80% (w/w), 60% (w/w), 40% (w/w), 30% (w/w) or 0% (w/w) cholesterol. The remaining lipid comprised a mixture of DMPC: DMPE: DMPS: DMPG in a ratio of 75:20:2.5:2.5 (by weight).
(§1) Binding experiments were carried out with a BIAcore X analytical system (Biacore, Uppsala, Sweden) using an L1 sensor chip (Biacore), as supplied by the manufacturer. It will be appreciated that other types of biosensor may also be used, preferably provided that the chip surface is such that the bound lipid material is able to retain a bilayer or monolayer structure. The running buffer used for all experiments was 0.02 M sodium phosphate buffer, pH 6.8 (phosphate buffer). The washing solution was 40 mM N-octyl β-D-glucopyranoside. The regeneration solution was 10 mM sodium hydroxide. All solutions were freshly prepared, degassed and filtered through a […] filter. The operating temperature was 25° C.
(§2) The alkyl surface of the L1 chip was cleaned by an injection of 25 μl of non-ionic 40 mM octyl glucoside at a flow rate of 5 μl/min. SUV (100 μl) or vascular SMC membranes (100 μl containing 0.33 mg protein) were then immediately applied to the chip surface at a low rate of 5 μl/min. To remove any multilamellar structures from the synthetic lipid surface, 30 μL of 10 mM sodium hydroxide was injected at a flow rate of […], resulting in a stable baseline corresponding to the successful formation of an immobilized layer of SUVs.
(§3) Peptide solutions were prepared at concentrations ranging from 0.5 to 10 μM. The solutions were injected over the lipid surface at a flow rate of 5 μl/min for 20 min. The peptide solution was then replaced by phosphate buffer and the peptide-membrane complex allowed to dissociate. The removal of the bound peptide and regeneration of the L1 chip surface, without removal of the synthetic lipid or vascular SMC membrane layer, was achieved by an injection of sodium hydroxide (30 μl, 10 mM) at a flow rate of 50 μl/min.
The amount of binding in response units (RU) was fitted by a simple one-to-one Langmuir reaction model (Morton et al., 1995):
or a competing reaction model (Karlsson and Falt, 1997):
using BIAevaluation 3.0 software (Biacore). The data obtained from five different binding experiments performed at five different concentrations of peptide were fitted globally to obtain the equilibrium association constant (KA). The accuracy of each fit was assessed by calculating a X^2 value for the data (Karlsson and Failt, 1997). A lower X^2 value was taken as an indication of a better fit of the data. […] Scatchard plots were generated using BIAevaluation 3.0 software (Biacore).
As previous studies have shown that Aβ can interact directly with lipid membranes, we examined the possibility that the toxic effects of Aβ were due to a direct interaction with the vascular SMC membrane. To study the binding of Aβ to lipids, biosensor technology was employed.

[2] = tested on: vascular SMCs; assay: MTS assay of cytotoxicity of Aβ peptides against vascular smooth muscle cells; assay type: cell-based, rat; settings: 24 h, FIG. 1; for toxicity against vascular SMCs (MTS assay): peptide 10 μM; for toxicity against vascular SMCs after aging the peptide (MTS assay): peptide aged 5 days, 10 μM
Protocol: (§4) Aβ 1-42, Aβ 1-40, Aβ 1-28, Aβ 17-42 and Aβ 29-42 were dissolved in dimethyl sulfoxide (DMSO) at a concentration of 2 mM. The peptide solutions were then sonicated (42 kHz) for 5 minutes, and centrifuged at 5,000 rpm for 1 minute at room temperature using a Hermle Z160M bench microfuge. Solubilised peptides were immediately snap-frozen and mixed on a vortex mixer for 15 seconds. The peptides were then diluted into DMEM for cell culture experiments, or in 0.02 M sodium phosphate buffer, pH 6.8 for biosensor experiments, to give a final concentration of 10 μM.
(§5) Vascular SMCs were plated at a density of 10^4 cells/well in a 96-well plate, or at a density of 10^6 cells/75 cm^2 cell culture flask (Nunc, Denmark) in 20 ml culture medium, and grown to 80% confluence, after which the medium was removed and replaced with fresh, serum-free medium with or without […] lovastatin.
The F3-(4,5-dimethylthiazol-2-yl)-5-(3-carboxymethoxyphenyl)-2(4-sulfophenyl)-2H-tetrazolium (MTS) reagent solution was added to the culture medium at a concentration of 10% (by volume).
To measure Aβ toxicity against vascular SMCs, cultures of cells were treated with Aβ peptides and analogues (10 μM) and the amount of toxicity determined using the MTS assay (Cory et al., 1991). […] Aging the peptides by incubation for 5 days caused a significant increase in toxicity. Previous studies (e.g., Pike et al., 1991) have shown that the aggregation of the Aβ into fibrils may be important for the generation of toxic species. The present results support this conclusion. […] In general, the amount of Aβ toxicity approximately correlated with the proportion of fibrillar species.

[3] = tested on: vascular SMC membranes (plasma membrane-enriched fraction); assay: Biosensor (surface plasmon resonance, BIAcore L1 chip) binding of Aβ to vascular SMC membranes; set-up: species or system rat; KA1 (equilibrium association constant for high affinity binding component) / KA2 (equilibrium association constant of low-affinity binding component): unit not given here; settings: for KA1 (equilibrium association constant for high affinity binding component) / KA2 (equilibrium association constant of low-affinity binding component): competing reaction model; for binding to plasma membrane-enriched fraction from vascular smooth muscle cells: FIG. 6
Protocol: as §5
(§6) A crude plasma membrane preparation was prepared from vascular SMCs by differential centrifugation (Hubbard et al., 1983). Cells were scraped off 10×75 cm^2 flasks using a cell scraper, and centrifuged in DMEM at 3,000 rpm in a Beckman Coulter Allegra 21R centrifuge at 4° C. for 3 min. The pellet was then washed with phosphate-buffered saline (PBS), added to 10 ml of STM buffer (0.25 M sucrose/5 mM Tris-HCl, pH 7.4/1.0 mM MgCl2), and homogenized on ice using 10 up and down strokes in a 40 ml Dounce-type glass homogenizer with a loose-fitting pestle. The homogenate was centrifuged at 1,100 rpm for 5 min. The supernatant fraction was saved and the pellet rehomogenized in 5 ml of STM buffer. The suspension was again centrifuged, and the first and second supernatant fractions combined, then centrifuged at 40,000 rpm for 2 h (Beckman L8-M Ultracentrifuge, 70 Ti rotor, no brake) and the resulting crude plasma membrane fraction resuspended in 1.0 ml of 0.02 M sodium phosphate buffer, pH 7.4. Total membrane cholesterol was determined using the Amplex Red cholesterol assay kit (Molecular Probes, Eugene, Oreg., USA). The protein content of the membrane preparations was determined using the bicinchoninic acid (BCA) assay using bovine serum albumin as standard.
as §1, §2, §3

[4] = Congo Red assay of amyloid fibrils; assay type: physicochemical; settings: peptide aged 5 days, 10 μM; FIG. 2
Protocol: as §4
The concentration of amyloid fibrils was measured using the assay of Klunk et al. (1999). Aβ peptides were mixed with Congo red (CR) in 0.02 M sodium phosphate buffer, pH 6.8. The final concentration of peptide and CR was 10 μM. Solutions of CR alone were also prepared in 0.02 M sodium phosphate buffer, pH 6.8. The mixture was vortexed briefly and then incubated at room temperature for 15 min. The absorbances at 403 and 541 nm were measured using a BioRad SmartSpec 3000 spectrophotometer. Background absorbance values of buffer alone were subtracted from the values obtained from each sample. The concentration of Aβ fibrils in each preparation was then determined using the formula
All preparations were prepared in triplicate, and the assay was conducted independently three times, with similar results being obtained in each experiment.

[5] = tested on: vascular SMC membrane cholesterol; assay: Cholesterol and protein content of plasma membrane fraction from lovastatin-treated vascular SMCs; assay type: cell-based, rat; settings: cells pretreated with lovastatin 72 h; Amplex Red cholesterol assay
Protocol: as §5
as §6, with “The suspension was again centrifuged, and the first and second supernatant fractions combined, then centrifuged at 40,000 rpm for 2 h (Beckman L8-M Ultracentrifuge, 70 Ti rotor, no brake) and the resulting crude plasma membrane fraction resuspended in 1.0 ml of 0.02 M sodium phosphate buffer, pH 7.4.” left out, “standard. […]” for “standard.”

[6] = tested on: vascular SMCs; assay: Effect of lovastatin pretreatment on Aβ toxicity in vascular SMCs (MTS assay); settings: lovastatin pretreatment 72 h
[7] = membranes from lovastatin-treated vascular SMCs (72 h)
[8] = membranes from untreated vascular SMCs

extent of binding to the synthetic lipid mixture [1]	KA1 (equilibrium association constant for high affinity binding component) [3, 7]	KA2 (equilibrium association constant of low-affinity binding component) [3, 7]	KA1 (equilibrium association constant for high affinity binding component) [3, 8]	KA2 (equilibrium association constant of low-affinity binding component) [3, 8]	KA1 (equilibrium association constant for high affinity binding component) ([1]; Cholesterol: PL ratio 30 : 70)	KA2 (equilibrium association constant of low-affinity binding component) ([1]; Cholesterol: PL ratio 30 : 70)	KA2 (equilibrium association constant of low-affinity binding component) ([1]; Cholesterol: PL ratio 60 : 40)	KA1 (equilibrium association constant for high affinity binding component) ([1]; Cholesterol: PL ratio 80 : 20)	KA2 (equilibrium association constant of low-affinity binding component) ([1]; Cholesterol: PL ratio 80 : 20)	Compound	toxicity against vascular SMCs (MTS assay) [2]	binding to plasma membrane-enriched fraction from vascular smooth muscle cells ([3]; peptide 10 μM)	toxicity against vascular SMCs after aging the peptide (MTS assay) [2]	also measured
bound more strongly	–	–	–	–	–	–	–	–	–	Aβ17-42: C-terminal Aβ fragment, residues 17-42 (LVFFAEDVGSNKGAIIGLMVGGVVIA; Amyloid-beta protein 42; UniProt P05067 688-713, looked up, fragment)	significant toxicity	–	–	–
–	9.3 × 10^4	5.3 × 10^4	1.8 × 10^6	9.6 × 10^5	1.8 × 10^5	6.9 × 10^4	4.8 × 10^7	2.7 × 10^8	6.9 × 10^7	Aβ1-42: β-amyloid protein peptide, residues 1-42, made by manual solid-phase Boc synthesis	significant toxicity	bound to the membrane fraction	significant increase in cytotoxicity	–
–	–	–	–	–	–	–	–	–	–	Aβ1-28: N-terminal Aβ fragment, residues 1-28	less toxic	–	still toxic; also recorded: significantly less toxic	fibrillar species (Congo red binding assay) [4]: failed to form fibrils; also recorded: formed fewer fibrillar species
–	4.1 × 10^4	3.6 × 10^4	8.3 × 10^5	5.9 × 10^5	1.1 × 10^5	5.2 × 10^4	1.3 × 10^6	4.8 × 10^7	1.0 × 10^7	Aβ1-40: β-amyloid protein peptide, residues 1-40, made by manual solid-phase Boc synthesis	significant toxicity	bound to the membrane fraction	–	total amount of binding to SMC membrane fraction relative to synthetic lipid mixture containing 60% cholesterol and 40% phospholipid ([3]; peptide 10 μM): approximately 10%; KA1 (equilibrium association constant for high affinity binding component) ([1]; Cholesterol: PL ratio 60 : 40): 4.0 × 10^7
–	–	–	–	–	–	–	–	–	–	CC[C@H](C)C(=O)O[C@H]1C[C@@H](C)C=C2C=C[C@H](C)[C@H](CC[C@@H]3C[C@@H](O)CC(=O)O3)[C@H]21 [lovastatin, Lovastatin]	–	–	–	Aβ1-40 and Aβ1-42 binding to plasma membrane fraction of lovastatin-treated cells, relative to that without lovastatin pretreatment ([3]; cells pretreated with lovastatin 72 h, unaged Aβ 10 μM, RU20): approximately 25%; cholesterol content of the membrane fraction relative to untreated cells [5]: approximately 55%; effect of lovastatin alone on the ability of vascular SMCs to reduce MTS ([6]; no Aβ): little effect; reduction of the Aβ1-40 and Aβ1-42-induced decrease in MTS reduction in lovastatin-treated cells versus controls ([6]; then unaged Aβ 10 μM 24 h, FIG. 7): 25-40%
bound more strongly	–	–	–	–	–	–	–	–	–	Aβ29-42: C-terminal Aβ fragment, residues 29-42 (GAIIGLMVGGVVIA; Amyloid-beta protein 42; UniProt P05067 700-713, looked up, fragment)	significant toxicity	–	–	–
